Patent US10829466B2, “Stilbene derivative and preparation method thereof” (BEIJING INSTITUTE OF TECHNOLOGY, priority 2015, dated 2020)
Entries after “also recorded” stand apart in the source; their conditions may differ.

How the values were obtained:
HEK293 = experiment: In vitro cytotoxicity experiment (MTT, cell survival); format: cell-based; details: HEK293, in vitro test, FIG. 3
Description: Example 35: In Vitro Cytotoxicity Experiment the Experimental Cell Line is HEK293
Cells are cultured in a 96-well plate at a cell concentration of 5000/well. After 24 hours of cell culture, the drug treatment is performed and the experiment is carried out on two groups: the control group is added with DMSO with the same concentration as that for the experimental group; in the experimental group, each compound is tested at three doses of low, medium and high doses (100 μM; 500 μM; 1000 μM), and five parallels are tested at each dose; in the blank group, a complete medium is added with a compound to be tested with the same concentration as that for the experimental group. Constant temperature incubation is carried out for 24 h in a CO2 incubator, MTT with a final concentration of 0.5 mg/mL is then added; 4 hours later, 200 μL of DMSO solution is added, and the absorbance is measured at 490 nm. The cell survival is calculated according to the absorbance; Survival %=(Average concentration−Blank concentration)/(Average control concentration−Blank concentration)*100%.
Reference is made to FIG. 3 which illustrates an in vitro cytotoxicity test chart of a novel stilbene derivative according to an example of embodiments of the present invention.

[1] = test system: neurogenesis in rat hippocampus; experiment: BrdU and NeuN fluorescence double staining; format: in vivo
Description: Example 37: Experimental Procedure of BrdU and NeuN Fluorescence Double Staining
The samples are obtained in the same manner as an Example 34. First, the DNA denaturation is performed, and the sections are transferred to a HCl solution perfused with 2 N, and treated at 37° C. for 60 minutes to be denatured. After completion of the denaturation, the brain sections are immersed in a 0.1 M sodium borate (pH 8.5) solution for 5 minutes and rinsed twice; the brain sections are then blocked for 1 hour with a serum blocking solution on a shaker at room temperature, and the serum blocking solution is from the same source as a secondary antibody; the samples are treated on the shaker with BrdU (1:500, Millipore) and NeuN (1:500, Abcam) primary antibodies overnight at 4° C., and the primary antibodies are diluted with the blocking solution; the samples are incubated with fluorescent secondary antibodies goat anti-mouse and goat anti-rabbits at room temperature (1:50, Zhongshanjinqiao) for 2 hours at room temperature in a dark place; the samples are mounted by using a fluorescent anti-quenching PVP mounting medium and then dried, and finally the experimental results are detected under a microscope. Control group and drug group (low dose L, 2 mg/Kg; medium dose M, 4 mg/Kg).

[2] = test system: neurogenesis in rat hippocampus; experiment: Detection of neurogenesis in rat hippocampus by BrdU labeling (DAB immunohistochemistry); format: in vivo; details: under the test conditions of the embodiments, same dose
Excerpt: Example 36: Detection of Neurogenesis in Rat Hippocampus by BrdU (5-Bromo-2-deoxy Uridine, 5-bromodeoxyuridine) Labeling
Experimental animals: 10-week-old SD male rats having a body weight of about 300 g are purchased. The rats are used in experiments one week after being adapted to the environment in an animal room. Experimental groups: control group, drug group. 2-3 rats per group. Experimental reagent: injection oil is used to dissolve a compound to be tested. Rates in the control group are injected with the same dose of dissolving oil.
Test method: intraperitoneal injection is carried out 28 days at the injection dose of 0.5 ml-1 ml each time. Dose: 4 mg/Kg.
1) marker injection: BrdU (dissolved in sterile saline solution at a concentration of 10 mg/mL) solution is injected intraperitoneally into rats. (For rats with different body weights, the injection dose of BrdU is 50 mg·Kg^−1, injection is carried out twice every 2 hour; the intraperitoneal injection 24 hours before anesthesia ends.
2) Anesthesia: Anesthesia is performed by intraperitoneal injection of sodium pentobarbital solution into rats. (For rats with different body weights, the injection dose of sodium pentobarbital is usually 70 mg·Kg^−1.)
3) Cardiac perfusion: cardiac perfusion with normal saline is performed according to a general method.
4) Taking of brain tissues: The heads of the rats are separated from the bodies with surgical forceps and scissors, and then the muscles and membrane tissues at the top of the skulls are removed and brains are then gently peeled from the skulls. The separated brains are soaked in 4% paraformaldehyde for 24-48 hours.
5) Dehydration of brain tissues: the fixed tissues are soaked with a 20% sucrose PBS solution for more than 72 hours, and then the brain tissues are soaked with a 30% sucrose PBS solution for more than 72 hours.
6) Frozen section: the brain tissues are cut into […] thick sections by a general coronal section procedure.
7) DAB immunohistochemistry step: DNA denaturation is carried out and the sections are transferred to a 24-well plate (pH 7.4) perfused with 0.1 M PBS. The brain sections are incubated with 1% H2O2 for 30 minutes to remove […]; the sections are then treated with a 2M HCl solution for 30 minutes at room temperature to denature them. After completion of the denaturation, the brain sections are immersed in a 0.1 M sodium borate (pH 8.5) solution for 5 minutes and rinsed twice; the brain sections are incubated in 0.5% PBST for 1 hour at room temperature, and then are blocked for 1 hour with a serum blocking solution on a shaker at room temperature, and the serum blocking solution is from the same source as a secondary antibody; the samples are treated on the shaker with a BrdU primary antibody overnight at 4° C., and the BrdU primary antibody is diluted with the blocking solution; the samples are incubated with the biotinylated secondary antibody IgG for 2 hours at room temperature; a C (ABC kit) solution is incubated at room temperature for 2 hours; finally, after 3 to 5 minutes of color development by the DAB kit, the samples are mounted by using a PVP mounting medium and then dried, and finally the experimental results are detected under a microscope.
The dose-effect relationships of different compounds is further tested according to the method of Example 36, and the compounds include WS-54 (E-4-isobutyrylamino-3′,4′-methylenedioxy-stilbene), WS-69 (E-4-Methylsulfonamino-3′,4′-methylenedioxy-stilbene), WS-70 (E-4-Benzamino-3′,4′-methylenedioxy-stilbene), and WS-74 (E-4-Cyclopropylformamino-3′,4′-methylenedioxy-stilbene).

CC(=O)Nc1ccc(/C=C/c2ccc3c(c2)OCO3)cc1 [WS-6, E-4-acetylamino-3′,4′-methylenedioxy-stilbene]
neuronal cytotoxicity / neurotoxicity (in words) (HEK293): further reduced in neurotoxicity as compared with WS-61; also recorded: greatly reduced
dose relationship of NeuN+BrdU+ spots ([1]; 4 mg/Kg over 2 mg/Kg): can further enhance neurogenesis at the dose of 4 mg/Kg over the dose of 2 mg/Kg
BrdU and NeuN double staining: neurogenesis ([1]; low dose 2 mg/Kg and medium dose 4 mg/Kg, FIG. 9): can promote neurogenesis
neurogenesis activity (in words) [2]: better neurogenesis activity
